In brackets after ≈: the same amount, converted by molar mass. Where two headings read alike, the source gives them in different places.
Experiments:
P. aeruginosa MB5178 = experiment: Minimum inhibitory concentration (MIC), agar plate dilution method, P. aeruginosa MB5178; format: cell-based; conditions: Pseudomonas aeruginosa, read-out: Minimum Inhibitory Concentration (MIC)
Procedure: (§1) One platinum loopful of each test microorganism incubated overnight in Mueller Hinton broth, was inoculated to Mueller Hinton agar (inoculum size: 10^6 CFU/ml). Such culture media contained antibacterial agents in various concentrations. After incubation at 37° C. for 16 hours, the minimum inhibitory concentrations (MIC: μg/ml) were measured. Further, the DHP-I susceptibility was quantitatively analyzed by the method by Kropp et al. (Antimicrob. Agents Chemother., vol. 22, p. 62-70 (1982)), whereby the smaller the numerical value representing the ratio to imipenem (=1.0), the higher the stability.
(§2) The minimum inhibitory concentrations and the DHP-I susceptibility of the compounds of the present invention were compared with imipenem and the compound of REFERENCE EXAMPLE 4.

P. aeruginosa MB5002 = experiment: Minimum inhibitory concentration (MIC), agar plate dilution method, P. aeruginosa MB5002; format: cell-based; conditions: Pseudomonas aeruginosa, read-out: Minimum Inhibitory Concentration (MIC)
Procedure: as §1, §2

[1] = system: DHP-I (renal dehydropeptidase I); experiment: DHP-I susceptibility, method by Kropp et al.; format: in vitro ADME; conditions: ratio to imipenem (=1.0); the smaller the value, the higher the stability
Procedure: as §1, §2

[2] = cited from earlier work
DHP-I = conditions: in vivo; human kidney for imipenem; cited from earlier work
[3] = in words; cited from earlier work
[4] = system: gram positive bacteria and gram negative bacteria; conditions: literature, in words; cited from earlier work
β-lactamase = conditions: literature, in words; cited from earlier work
[5] = system: Methicillin resistant Staphylococcus aureus and resistant Pseudomonas aeruginosa; conditions: prior-art compounds; highly methicillin resistant S. aureus and resistant P. aeruginosa; cited from earlier work
[6] = due to the decomposition products; cited from earlier work
[7] = P. aeruginosa MB5178, Mueller Hinton agar, inoculum 10^6 CFU/ml, 37° C., 16 hours
[8] = P. aeruginosa MB5002, Mueller Hinton agar, inoculum 10^6 CFU/ml, 37° C., 16 hours

Q: Which results are given for `CC(=O)NC[C@@H]1C[C@H](SC2=C(C(=O)O)N3C(=O)[C@H]([C@@H](C)O)[C@H]3[C@H]2C)CN1` [compound 1, (1R,5S,6S)-2-[(2S,4S)-2-(Acetylaminomethyl)pyrrolidin-4-ylthio]-6-[(R)-1-hydroxyethyl]-1-methyl-1-carbapen-2-em-3-carboxylic Acid]?
A: MIC (P. aeruginosa MB5178; [7]): 12.5 µg/mL (≈ 32.6 µM); MIC (P. aeruginosa MB5002; [8]): 6.25 µg/mL (≈ 16.3 µM); DHP-I susceptibility [1]: 0.7

Q: With `C[C@@H](O)[C@H]1C(=O)N2C(C(=O)O)=C(SCCN)C[C@H]12` [Thienamycin] as the compound, how does the chemical stability ([2]; literature, in words) read?
A: chemically unstable

Q: And the “decomposition by renal dehydropeptidase I (DHP-I)” value (DHP-I)?
A: likely to be decomposed by a certain enzyme in vivo such as renal dehydropeptidase I

Q: What about the “recovery rate in the urine” value [3] of the same compound?
A: low

Q: What about the antibacterial activities [4] of the same compound?
A: strong antibacterial activities over a wide range against gram positive bacteria and gram negative bacteria

Q: Which MIC (P. aeruginosa MB5178; [7]) does the source give for `CNCC[C@@H]1C[C@H](SC2=C(C(=O)O)N3C(=O)[C@H]([C@@H](C)O)[C@H]3[C@H]2C)CN1` [Example 1, (1R,5S,6S)-6-[(R)-1-Hydroxyethyl]-1-methyl-2-[(2R,4S)-2-[2-(methylamino)ethyl]pyrrolidin-4-ylthio]-1-carbapen-2-em-3-carboxylic Acid] here?
A: 3.13 µg/mL (≈ 8.47 µM)

Q: What about the MIC (P. aeruginosa MB5002; [8]) of the same compound?
A: 0.78 µg/mL (≈ 2.11 µM)

Q: What about the DHP-I susceptibility [1] of the same compound?
A: < 0.05

Q: With `CNCCC[C@@H]1C[C@H](SC2=C(C(=O)O)N3C(=O)[C@H]([C@@H](C)O)[C@H]3[C@H]2C)CN1.Cl` [Example 3, (1R,5S,6S)-6-[(R)-1-Hydroxyethyl]-1-methyl-2-[(2R,4S)-2-[3-(methylamino)propyl]pyrrolidin-4-ylthio]-1-carbapen-2-em-3-carboxylic acid Monohydrochloride] as the compound, how does the MIC (P. aeruginosa MB5178; [7]) read?
A: 3.13 µg/mL

Q: And the MIC (P. aeruginosa MB5002; [8])?
A: 0.78 µg/mL

Q: What about the DHP-I susceptibility [1] of the same compound?
A: 0.07

Q: With `C[C@@H](O)[C@H]1C(=O)N2C(C(=O)O)=C(SCCN=CN)C[C@H]12` [Imipenem, (5R,6S,8R)-3-[[2-(formimidoylamino)ethyl]thio]-6-(1-hydroxyethyl)-7-oxo-1-azabicyclo[3.2.0]hept-2-en-2-carboxylic acid monohydrate] as the compound, how does the MIC (P. aeruginosa MB5178; MB5178, 16 h) read?
A: 25 µg/mL

Q: And the β-lactamase resistance (β-lactamase)?
A: has β-lactamase resistance

Q: What about the “stability in the solid form or in an aqueous solution” value ([2]; relative to thienamycin) of the same compound?
A: remarkably improved over thienamycin

Q: What about the MIC (P. aeruginosa MB5002; MB5002, 16 h) of the same compound?
A: 1.56 µg/mL

Q: And the “decomposition by renal dehydropeptidase I (DHP-I)” value (DHP-I)?
A: likely to be decomposed by DHP-I in the human kidney

Q: And the “treating effects / antibacterial activities against resistant bacteria” value [5]?
A: does not show adequate treating effects against these resistant bacteria

Q: What about the DHP-I susceptibility [1] of the same compound?
A: 1.0

Q: What about the “toxicity against the kidney” value [6] of the same compound?
A: presents toxicity against the kidney due to the decomposition products

Q: And the antibacterial activities [4]?
A: antibacterial activities of an equal or higher level than thienamycin against various types of bacteria
